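Exposure lasted 48 hours, with cells grown in 96-well plates and compounds tested at five concentrations. TGI is the concentration that stops growth completely.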 Where a SMILES comes first, the peptide text is derived from it. [ ]: non-standard residue; d: D form. The star is where a group is joined. Phe(4-NO2) = N[CH](Cc1ccc([N+](=O)[O-])cc1)C(=O)O; Boc = CC(C)(C)OC(=O)*; OtBu = CC(C)(C)O*
Key:
Assay in all cases: NCI anticancer screen, dose series, 48 h
[1] = tested on: NCI/ADR-RES ovarian
[2] = tested on: HCT-15 colon
[3] = tested on: SN12C renal
[4] = tested on: COLO 205 colon
[5] = tested on: HCC-2998 colon
[6] = tested on: RPMI-8226 leukemia
[7] = tested on: HOP-62 NSCLC
[8] = tested on: NCI-H460 lung
[9] = tested on: UO-31 renal
[10] = tested on: IGROV1 ovarian
[11] = tested on: SR leukemia
[12] = tested on: PC-3 prostate
[13] = tested on: SF-539 CNS
[14] = tested on: EKVX NSCLC
[15] = tested on: SF-268 CNS
[16] = tested on: T-47D breast
[17] = tested on: RXF 393 renal
[18] = tested on: OVCAR-3 ovarian
[19] = tested on: HOP-92 NSCLC
[20] = tested on: K-562 leukemia
[21] = tested on: SK-OV-3 ovarian
[22] = tested on: SNB-75 CNS
[23] = tested on: ACHN renal
[24] = tested on: MOLT-4 leukemia
[25] = tested on: SK-MEL-28 melanoma
[26] = tested on: U251 CNS
[27] = tested on: UACC-257 melanoma
[28] = tested on: NCI-H522 lung
[29] = tested on: MDA-N
[30] = tested on: HT29 colon
[31] = tested on: OVCAR-8 ovarian
[32] = tested on: NCI-H226 lung
[33] = tested on: M14 melanoma
[34] = tested on: SNB-19 CNS
[35] = tested on: MDA-MB-231 breast
[36] = tested on: MCF7 breast
[37] = tested on: MDA-MB-435
[38] = tested on: TK-10 renal
[39] = tested on: HL-60(TB) leukemia
[40] = tested on: CCRF-CEM leukemia
[41] = tested on: SF-295 CNS
[42] = tested on: CAKI-1 renal
[43] = tested on: OVCAR-5 ovarian
[44] = tested on: NCI-H23 lung
[45] = tested on: UACC-62 melanoma
[46] = tested on: MALME-3M melanoma
[47] = tested on: SK-MEL-2 melanoma
[48] = tested on: DU-145 prostate
[49] = tested on: SK-MEL-5 melanoma
[50] = tested on: KM12 colon
[51] = tested on: SW-620 colon
[52] = tested on: LOX IMVI melanoma
[53] = tested on: 786-0 renal
[54] = tested on: A549 NSCLC
[55] = tested on: OVCAR-4 ovarian
[56] = tested on: HCT-116 colon

Compound: CC(=O)NC(CCC(=O)OC(C)(C)C)C(=O)NC(CCC(=O)OC(C)(C)C)C(=O)NC(Cc1ccc([N+](=O)[O-])cc1)C(=O)NC(CCCCNC(=O)OC(C)(C)C)C(=O)NC(CCCCNC(=O)OC(C)(C)C)C(=O)NCC(=O)O (stereo unspecified) (Ac-E(OtBu)E(OtBu)[Phe(4-NO2)]K(Boc)K(Boc)G-OH; configuration not given here)
- TGI [1]: > 100 µM
- TGI [2]: > 100 µM
- TGI [3]: > 100 µM
- TGI [4]: > 100 µM
- TGI [5]: > 100 µM
- TGI [6]: > 100 µM
- TGI [7]: > 100 µM
- TGI [8]: > 100 µM
- TGI [9]: > 100 µM
- TGI [10]: > 100 µM
- TGI [11]: > 100 µM
- TGI [12]: > 100 µM
- TGI [13]: > 100 µM
- TGI [14]: > 100 µM
- TGI [15]: > 100 µM
- TGI [16]: > 100 µM
- TGI [17]: > 100 µM
- TGI [18]: > 100 µM
- TGI [19]: > 100 µM
- TGI [20]: > 100 µM
- TGI [21]: > 100 µM
- TGI [22]: > 100 µM
- TGI [23]: > 100 µM
- TGI [24]: > 100 µM
- TGI [25]: > 100 µM
- TGI [26]: > 100 µM
- TGI [27]: > 100 µM
- TGI [28]: > 100 µM
- TGI [29]: > 100 µM
- TGI [30]: > 100 µM
- TGI [31]: > 100 µM
- TGI [32]: > 100 µM
- TGI [33]: 53.5 µM
- TGI [34]: > 100 µM
- TGI [35]: > 100 µM
- TGI [36]: > 100 µM
- TGI [37]: > 100 µM
- TGI [38]: > 100 µM
- TGI [39]: > 100 µM
- TGI [40]: > 100 µM
- TGI [41]: > 100 µM
- TGI [42]: > 100 µM
- TGI [43]: > 100 µM
- TGI [44]: > 100 µM
- TGI [45]: > 100 µM
- TGI [46]: > 100 µM
- TGI [47]: > 100 µM
- TGI [48]: > 100 µM
- TGI [49]: > 100 µM
- TGI [50]: > 100 µM
- TGI [51]: > 100 µM
- TGI [52]: > 100 µM
- TGI [53]: > 100 µM
- TGI [54]: > 100 µM
- TGI [55]: > 100 µM
- TGI [56]: > 100 µM

— PubChem BioAssay (NCI)
